Read-outs that look alike come from different tables or passages of the source.
Columns and labels:
[1] = biological target: β-xylosidase from Thermoanaerobacterium saccharolyticum; settings: read-out: Ki (Xyl Therm. sac.), cited from earlier work
[2] = biological target: human lysosomal β-glucocerebrosidase (GCase); settings: cited from earlier work; for IC50: compounds 10a-10b
[3] = biological target: T1, human β-glucocerebrosidase (GCase) (Homo sapiens, UniProt P04062); test: Ki determination with human β-glucocerebrosidase (GCase); type: biochemical; settings: 37 °C, citric acid/phosphate buffer with Triton X-100 and taurocholic acid pH 7.0, 4-nitrophenyl glycopyranoside substrate; read-out: Ki β-Glu, Gaucher (GCase)
T1 construct: gift of Dr. Lorne Clarke, University of British Columbia
T1 sequence (P04062 40-536): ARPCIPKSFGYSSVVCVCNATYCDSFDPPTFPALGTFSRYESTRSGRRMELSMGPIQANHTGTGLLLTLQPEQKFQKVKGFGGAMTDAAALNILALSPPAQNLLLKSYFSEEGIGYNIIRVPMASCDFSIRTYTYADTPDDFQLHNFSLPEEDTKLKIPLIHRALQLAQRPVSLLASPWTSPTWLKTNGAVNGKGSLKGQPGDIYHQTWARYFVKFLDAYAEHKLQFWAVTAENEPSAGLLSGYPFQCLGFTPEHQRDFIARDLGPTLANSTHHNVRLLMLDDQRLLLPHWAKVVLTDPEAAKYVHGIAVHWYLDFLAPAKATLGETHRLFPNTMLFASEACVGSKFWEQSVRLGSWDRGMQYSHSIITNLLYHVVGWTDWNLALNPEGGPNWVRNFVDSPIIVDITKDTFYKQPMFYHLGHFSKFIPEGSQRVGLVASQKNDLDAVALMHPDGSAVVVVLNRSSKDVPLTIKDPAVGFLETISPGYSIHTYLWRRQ
From the text: (§1) For the biological evaluation of the synthesized DIX derivatives 19, 23, 26, and 28, we have probed a series of standard glycoside hydrolases, including β-glucosidase from Agrobacterium sp. (ABG), β-galactosidase from E. coli, Fabrazyme (commercial recombinant human lysosomal α-galactosidase), α-glucosidase S. cerevisiae, and human β-glucocerebrosidase GCase, to investigate ligand activity as well as selectivity. […] This increase in selectivity might be explained by the fact that compounds 26 and 28 combine the advantages of both features, the ethyl group at position C-1 locking the structure in the ^1C4 conformation as well as the lipophilic substituents at the ring nitrogen. The former has been implied for favorable ligand properties and the fitting into the active site of GCase. The latter interacts with the lipophilic entrance to the active site of GCase mimicking the ceramide residue of the natural substrate glucosyl ceramide. Compounds 26 and 28 will serve as building blocks for further functionalisation as proposed.
(§2) Kinetic studies were performed at 37 °C in an appropriate buffer using a known concentration of enzyme (specific conditions depicted below). Ki determinations were performed using the corresponding 4-nitrophenyl α- or β-D-glycopyranoside as substrate. In a typical assay, the enzyme was incubated with different inhibitor concentrations for up to 5 min before initiating the reaction by the addition of substrate. The initial reaction rate was measured by monitoring the increase in absorbance at 400 nm for up to 10 min. Ki determinations were performed using at least two different substrate concentrations. For each inhibitor, a range of four-to-six inhibitor concentrations bracketing the Ki value ultimately determined was used for each substrate concentration. Dixon plots (1/v vs. [I]) were constructed to validate the use of the competitive inhibition model. The data were then fitted using non-linear regression analysis with Grafit 7.0.

[4] = biological target: S. cerevisiae α-glucosidase; test: Ki determination with α-glucosidase S. cerevisiae; type: biochemical; settings: 37 °C, 50 mM sodium phosphate buffer pH 7, PNP α-Glc substrate; read-out: Ki α-Glu, S. cer.
From the text: as §1, §2

[5] = biological target: T2, Fabrazyme (commercial recombinant human lysosomal α-galactosidase) (Homo sapiens, UniProt P06280); test: Ki determination with Fabrazyme; type: biochemical; settings: 37 °C, citrate/phosphate buffer with Triton X-100 and taurocholic acid pH 5.5, 4-nitrophenyl glycopyranoside substrate; read-out: Ki α-Gal, Fabrazyme
T2 construct: purchased Fabrazyme, a commercial product; received as a gift from Dr Lorne Clarke, University of British Columbia
T2 sequence (P06280 32-429): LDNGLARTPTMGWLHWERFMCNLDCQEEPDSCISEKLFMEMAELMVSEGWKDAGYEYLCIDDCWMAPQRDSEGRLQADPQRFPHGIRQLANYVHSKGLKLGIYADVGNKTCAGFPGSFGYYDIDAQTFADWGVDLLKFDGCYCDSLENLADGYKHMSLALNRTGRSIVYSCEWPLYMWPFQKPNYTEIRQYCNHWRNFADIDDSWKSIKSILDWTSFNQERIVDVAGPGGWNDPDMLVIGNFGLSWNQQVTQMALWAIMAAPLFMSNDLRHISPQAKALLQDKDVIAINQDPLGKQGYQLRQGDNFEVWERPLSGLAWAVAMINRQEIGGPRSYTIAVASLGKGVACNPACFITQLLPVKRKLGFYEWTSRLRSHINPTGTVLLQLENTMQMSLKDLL
From the text: as §1, §2

[6] = biological target: T3, E.coli lac z β-galactosidase (Escherichia coli, UniProt P00722); test: Ki determination with β-galactosidase from E. coli; type: biochemical; settings: 37 °C, 50 mM sodium phosphate, 1.0 mM MgCl2 pH 7, 4-nitrophenyl glycopyranoside substrate; read-out: Ki β-Gal, E. coli
T3 construct: purchased Sigma-Aldrich
T3 sequence (P00722 2-1024 limits assumed): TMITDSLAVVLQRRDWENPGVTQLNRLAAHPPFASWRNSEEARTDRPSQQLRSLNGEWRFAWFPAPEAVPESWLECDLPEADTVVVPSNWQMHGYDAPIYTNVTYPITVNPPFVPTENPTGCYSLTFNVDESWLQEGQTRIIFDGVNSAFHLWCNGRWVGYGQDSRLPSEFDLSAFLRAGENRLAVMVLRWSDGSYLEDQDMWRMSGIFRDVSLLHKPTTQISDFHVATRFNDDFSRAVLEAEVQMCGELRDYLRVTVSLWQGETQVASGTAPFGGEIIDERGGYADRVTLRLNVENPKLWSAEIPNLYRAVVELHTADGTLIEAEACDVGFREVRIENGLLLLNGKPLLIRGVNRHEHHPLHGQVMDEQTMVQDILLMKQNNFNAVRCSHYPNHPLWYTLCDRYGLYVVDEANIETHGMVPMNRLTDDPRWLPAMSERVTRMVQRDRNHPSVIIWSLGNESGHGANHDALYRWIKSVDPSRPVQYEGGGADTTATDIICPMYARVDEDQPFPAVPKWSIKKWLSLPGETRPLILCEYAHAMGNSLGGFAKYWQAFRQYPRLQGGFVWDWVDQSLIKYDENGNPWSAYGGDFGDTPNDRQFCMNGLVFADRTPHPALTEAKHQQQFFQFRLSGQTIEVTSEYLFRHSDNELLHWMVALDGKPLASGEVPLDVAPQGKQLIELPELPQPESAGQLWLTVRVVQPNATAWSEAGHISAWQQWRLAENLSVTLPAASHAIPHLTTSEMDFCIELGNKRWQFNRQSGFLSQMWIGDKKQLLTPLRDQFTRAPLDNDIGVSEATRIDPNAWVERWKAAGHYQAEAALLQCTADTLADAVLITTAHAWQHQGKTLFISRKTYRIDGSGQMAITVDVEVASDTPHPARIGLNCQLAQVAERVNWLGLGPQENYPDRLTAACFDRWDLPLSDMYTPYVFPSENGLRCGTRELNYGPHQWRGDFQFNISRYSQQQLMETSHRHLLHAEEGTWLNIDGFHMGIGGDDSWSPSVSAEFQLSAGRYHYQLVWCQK
From the text: as §1, §2

[7] = biological target: T4, β-glucosidase/β-galactosidase from Agrobacterium sp. (ABG) (Agrobacterium sp., UniProt P12614); test: Ki determination with β-glucosidase from Agrobacterium sp. (ABG); type: biochemical; settings: for Ki: 37 °C, 50 mM sodium phosphate buffer pH 7, 4-nitrophenyl glycopyranoside substrate, read-out: Ki β-Glu, ABG
T4 construct: made in house; host or cells: E. coli
T4 sequence (P12614 1-459): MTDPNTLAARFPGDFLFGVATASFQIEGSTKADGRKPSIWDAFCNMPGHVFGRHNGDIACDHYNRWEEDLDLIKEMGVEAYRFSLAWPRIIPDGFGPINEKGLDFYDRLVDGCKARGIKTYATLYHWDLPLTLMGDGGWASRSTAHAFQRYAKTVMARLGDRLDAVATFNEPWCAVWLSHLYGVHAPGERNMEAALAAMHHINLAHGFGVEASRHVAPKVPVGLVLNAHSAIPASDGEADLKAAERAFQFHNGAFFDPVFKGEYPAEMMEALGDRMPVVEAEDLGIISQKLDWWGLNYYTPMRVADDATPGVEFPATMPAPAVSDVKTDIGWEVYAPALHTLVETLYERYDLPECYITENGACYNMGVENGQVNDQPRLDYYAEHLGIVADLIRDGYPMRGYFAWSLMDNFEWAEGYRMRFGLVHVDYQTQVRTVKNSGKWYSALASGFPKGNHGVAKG
From the text: as §1, §2

[8] = C-1 alkyl modified DIX analogues 15
[9] = D-xylo 1-C-iminosugar glycosides 14

In the case of `COC(=O)[C@H](CCCCN1C[C@@H](O)[C@H](O)[C@@H](O)C1)NS(=O)(=O)c1cccc2c(N(C)C)cccc12` [8, R^1 = NHdansyl, R^2 = OMe], the Ki ([1]; N-modified DIX derivatives 8) is given as 10 µM.
For `COC(=O)[C@H](CCCCN1C[C@@H](O)[C@H](O)[C@@H](O)C1)NC(=O)[C@H](CCCCN1C[C@@H](O)[C@H](O)[C@@H](O)C1)NS(=O)(=O)c1cccc2c(N(C)C)cccc12` [8, R^1 = NHdansyl, R^2 =], the Ki ([1]; N-modified DIX derivatives 8) is given as 21 µM.
For `COC(=O)[C@H](CCCCN1C[C@@H](O)[C@H](O)[C@@H](O)C1)N1C[C@@H](O)[C@H](O)[C@@H](O)C1` [8, R^1 = R^2 = OMe], the Ki ([1]; N-modified DIX derivatives 8) is listed as 25 µM.
In the case of `N#CCCN1C[C@@H](O)[C@H](O)[C@@H](O)C1` [Compound 7a], the Ki ([1]; N-modified DIX derivatives 7) is given as 24 µM.
For `COC(=O)CCN1C[C@@H](O)[C@H](O)[C@@H](O)C1` [Compound 7b], the Ki ([1]; N-modified DIX derivatives 7) is given as 35 µM.
In the case of `CCCCCC[C@H]1NC[C@@H](O)[C@H](O)[C@H]1O` [Compound 10a], the IC50 [2] is listed as 0.019 µM.
For `CCCCCCO[C@H]1CNC[C@@H](O)[C@@H]1O` [Compound 10b], the IC50 [2] is given as 0.009 µM.
In the case of `CCOC(=O)CC[C@H]1NC[C@@H](O)[C@H](O)[C@H]1O` [Compound 19, (1R)-1-C-(Ethyloxycarbonylethyl)-1,5-dideoxy-1,5-imino-D-xylitol], the Ki [3] is reported as 5.1 µM, the Ki [4] is reported as > 1000 µM and the Ki [5] is reported as > 1000 µM. For the same molecule, the Ki [6] was > 1000 µM and the Ki [7] was 2.1 µM.
For `O=C(CC[C@H]1NC[C@@H](O)[C@H](O)[C@H]1O)NCCc1c[nH]cn1` [Compound 23, (1R)-1-C-[(Imidazo-4-yl)ethylaminocarbonylethyl]-1,5-dideoxy-1,5-imino-D-xylitol], the Ki [3] was 1.1 µM, the Ki [4] was > 1000 µM and the Ki [5] was > 1000 µM. The Ki [6] was > 1000 µM and the Ki [7] was 1.6 µM.
With `CC[C@@H]1[C@H](O)[C@@H](O)[C@H](O)CN1CCCCCC(=O)OC` [Compound 26, (1R)-1-C-Ethyl-N-(methyloxycarbonylpentyl)-1,5-dideoxy-1,5-imino-D-xylitol] the Ki [3] was 57 µM, the Ki [4] was > 1000 µM and the Ki [5] was > 1000 µM. For the same molecule, the Ki [6] was > 1000 µM, the “inhibition of β-Glu ABG, in words” value [7] was “No detectable inhibition” and the Ki [7] was > 1000 µM.
For `CC[C@@H]1[C@H](O)[C@@H](O)[C@H](O)CN1CCCCCC(=O)NCCc1c[nH]cn1` [Compound 28, (1R)-1-C-Ethyl-N-[(imidazo-4-yl)ethylaminocarbonylpentyl]-1,5-dideoxy-1,5-imino-D-xylitol], the Ki [3] was 4.1 µM, the Ki [4] was > 1000 µM and the Ki [5] was > 1000 µM. For the same molecule, the Ki [6] was > 1000 µM, the “inhibition of β-Glu ABG, in words” value [7] was “No detectable inhibition” and the Ki [7] was > 1000 µM.
For `CCC[C@H]1NC[C@@H](O)[C@H](O)[C@H]1O` [R = (CH2)2CH3], the Ki [2, 8] is listed as 1.3 µM.
In the case of `OCC[C@H]1NC[C@@H](O)[C@H](O)[C@H]1O` [R = (CH2)2OH], the Ki [2, 8] is given as 26.7 µM.
In the case of `CCCCCCCCC[C@H]1NC[C@@H](O)[C@H](O)[C@H]1O` [R = C9H19], the Ki ([2]; 1-C-alkyl imino-D-xylitols 9) is given as 0.0022 µM.
In the case of `CCCCCCCCCCCC[C@H]1NC[C@@H](O)[C@H](O)[C@H]1O` [R = C12H25], the Ki ([2]; 1-C-alkyl imino-D-xylitols 9) is listed as 0.031 µM.
For `CC[C@H]1NC[C@@H](O)[C@H](O)[C@H]1O` [R = CH2CH3], the Ki [2, 8] is listed as 2.3 µM.
For `CC(C)[C@H]1NC[C@@H](O)[C@H](O)[C@H]1O` [R = CH(CH3)2], the Ki [2, 8] is listed as 12.4 µM.
In the case of `N#C[C@H]1NC[C@@H](O)[C@H](O)[C@H]1O` [R = CN], the Ki [2, 8] is given as 34 µM.
In the case of `O[C@@H]1[C@@H](O)[C@@H](CCCCCOCC23CC4CC(CC(C4)C2)C3)NC[C@H]1O` [R^1 = C-C, n=2, R^2 =], the Ki [2, 9] is listed as 0.001 µM.
In the case of `O[C@@H]1[C@@H](O)[C@@H](CC=CCCOCC23CC4CC(CC(C4)C2)C3)NC[C@H]1O` [R^1 = C=C, n=2, R^2 =], the Ki [2, 9] is listed as 0.002 µM.

Source: article PMC6534063, “Synthesis of modified 1,5-imino-D-xylitols as ligands for lysosomal β-glucocerebrosidase” (Monatshefte Fur Chemie, 2019)
